In brackets after ≈: the same amount, converted by molar mass. Non-standard residues stand in square brackets, D forms with d. Residues, ends and D or L forms follow the SMILES beside them. No end group written: not given here.
Experiments:
[1] = test system: T-lymphocytes; assay: Anti-inflammatory activity towards stimulated T-lymphocytes, canine (Table 25); format: cell-based; details: Canine T-cells, 32 μg/ml of peptide
[2] = test system: CCL5; assay: CCL5 production by peptide alone and in presence of Con A, canine cells (Table 21); format: cell-based; details: peptide 32 μg/ml
Method: (§1) A subset of peptides was tested for stimulation of the chemokine CCL5 (Table 21).

[3] = test system: T-lymphocytes; assay: Anti-inflammatory activity towards stimulated T-lymphocytes, bovine (Table 25); format: cell-based; details: Bovine T-cells, 32 μg/ml of peptide
[4] = test system: S. aureus (Sau); format: cell-based; details: Sau
[5] = test system: S. aureus (Sau); format: cell-based; details: Sau; remark: listed apart in the source
[6] = test system: E. coli (Ec); format: cell-based; details: Ec
[7] = test system: Histophilus somnus (Hs); format: cell-based
Method: (§2) The same strains as in Table 18 were assessed for Minimal Biofilm Inhibitory Concentrations (MBIC) (Table 19). Italics=excellent activity (less than or equal to 4 μg/ml). ND=Not determined. Peptides 3013, 3015 and 3016 inhibited biofilm growth in the largest number of bacterial strains (5, 5 and 6 out of 13 strains, respectively).

[8] = test system: Staphylococcus pseudintermedius (Sp); format: cell-based
Method: as §2

[9] = test system: Streptococcus uberis (Su); format: cell-based
Method: as §2

[10] = test system: Staphylococcus epidermidis (Se); format: cell-based
Method: as §2

[11] = test system: Streptococcus dysgalactiae (Sd); format: cell-based
Method: as §2

[12] = test system: Mannheimia haemolytica (Mh); format: cell-based
Method: as §2

[13] = test system: Streptococcus suis (Ss); format: cell-based
Method: as §2

[14] = test system: Bordatella bronchiseptica (Bb); format: cell-based
Method: as §2

[15] = test system: Streptococcus agalactiae (Sa); format: cell-based
Method: as §2

[16] = test system: Pseudomonas aeruginosa (Pa); format: cell-based
Method: as §2

[17] = test system: Pasteurella multocida (Pm); format: cell-based
Method: as §2

[18] = test system: E. coli (Ec); format: cell-based; details: Ec; remark: listed apart in the source
[19] = test system: monocytes; assay: Cytokine production in unstimulated monocytes, canine (Table 22); format: cell-based; details: background subtracted
Method: (§3) A subset of peptides was tested for stimulation of cytokine production in monocytes (Table 22). For the tested cytokines, the peptides tended to show anti-inflammatory activity rather than […] activity.

[20] = test system: Histophilus somnus (Hs); format: cell-based; remark: listed apart in the source
Method: (§4) The following strains were assessed vs. Staphylococcus epidermidis (Se), Pseudomonas aeruginosa (Pa), Streptococcus dysgalactiae (Sd), Pasteurella multocida (Pm), Streptococcus agalactiae (Sa), Streptococcus uberis (Su), Streptococcus suis (Ss), Mannheimia haemolytica (Mh), Bordatella bronchiseptica (Bb), Histophilus somnus (Hs), and Staphylococcus pseudintermedius (Sp) (Table 18) for Minimal Inhibitory Concentrations (MIC). Italics=excellent activity (less than or equal to 4 μg/ml).

[21] = test system: Staphylococcus pseudintermedius (Sp); format: cell-based; remark: listed apart in the source
Method: as §4

[22] = test system: Streptococcus uberis (Su); format: cell-based; remark: listed apart in the source
Method: as §4

[23] = test system: Staphylococcus epidermidis (Se); format: cell-based; remark: listed apart in the source
Method: as §4

[24] = test system: Streptococcus dysgalactiae (Sd); format: cell-based; remark: listed apart in the source
Method: as §4

[25] = test system: Mannheimia haemolytica (Mh); format: cell-based; remark: listed apart in the source
Method: as §4

[26] = test system: Streptococcus suis (Ss); format: cell-based; remark: listed apart in the source
Method: as §4

[27] = test system: Bordatella bronchiseptica (Bb); format: cell-based; remark: listed apart in the source
Method: as §4

[28] = test system: Streptococcus agalactiae (Sa); format: cell-based; remark: listed apart in the source
Method: as §4

[29] = test system: Pseudomonas aeruginosa (Pa); format: cell-based; remark: listed apart in the source
Method: as §4

[30] = test system: Pasteurella multocida (Pm); format: cell-based; remark: listed apart in the source
Method: as §4

[31] = test system: T-lymphocytes; assay: Cytokine production in T-lymphocytes, canine (Table 24); format: cell-based; details: no additional stimulant, background (NONE) subtracted
[32] = test system: ConA stimulated monocytes; assay: Anti-inflammatory activity in ConA stimulated monocytes, canine (Table 23); format: cell-based; details: 32 μg/ml peptide, negative = increase
[33] = test system: LPS stimulated monocytes; assay: Anti-inflammatory activity in LPS stimulated monocytes, bovine (Table 23); format: cell-based; details: 32 μg/ml peptide, negative = increase
[34] = test system: T-lymphocytes; assay: Cytokine production in T-lymphocytes, bovine (Table 24); format: cell-based; details: no additional stimulant, background (NONE) subtracted
[35] = test system: monocytes; assay: Cytokine production in unstimulated monocytes, bovine (Table 22); format: cell-based; details: background subtracted
Method: as §3

[36] = test system: CCL5; assay: CCL5 production by peptide alone and in presence of LPS, bovine cells (Table 21); format: cell-based; details: peptide 32 μg/ml
Method: as §1

[37] = test system: P. aeruginosa (PAO1); assay: Biofilm inhibition, static microtitre plate assay, crystal violet (Table 17; FIG. 19); details: BM2 minimal media
[38] = test system: Salmonella typhimurium (ATCC 14028); assay: Biofilm inhibition, static microtitre plate assay, crystal violet (Table 17); details: BM2 minimal media
[39] = test system: S. aureus (methicillin resistant clinical isolate C623); assay: Biofilm inhibition, static microtitre plate assay, crystal violet (Table 17; FIG. 19); details: 10% tryptic soy broth with 0.1% glucose
[40] = test system: E. coli O157:H7; assay: Biofilm inhibition, static microtitre plate assay, crystal violet (Table 17); details: BM2 minimal media

## CC[C@@H](C)[C@@H](NC(=O)[C@@H](C)NC(=O)[C@@H](CCCNC(=N)N)NC(=O)[C@@H](Cc1c[nH]c2ccccc12)NC(=O)[C@@H](CCC(N)=O)NC(=O)[C@H](N)C(C)C)C(=O)N[C@H](CCCNC(=N)N)C(=O)N[C@@H](C(=O)N[C@H](CCCNC(=N)N)C(=O)N[C@@H](C(=O)N[C@@H](C(=O)N[C@H](CCCNC(=N)N)C(N)=O)[C@H](C)CC)C(C)C)C(C)C [DJK5, VQWRAIRVRVIR] (H-[dV][dQ][dW][dR][dA][dI][dR][dV][dR][dV][dI][dR]-NH2; N-terminus and C-terminus assumed)
[1]
  % Cytokine decrease in the presence of LPS/ConA: IFNγ: 60.2%
  % Cytokine decrease in the presence of LPS/ConA: IL-2: 62.3%
  % Cytokine decrease in the presence of LPS/ConA: IL-4: 65.5%
  % Cytokine decrease in the presence of LPS/ConA: IL-6: 24.8%
  % Cytokine decrease in the presence of LPS/ConA: IL-13: 48.2%
  % Cytokine decrease in the presence of LPS/ConA: TNFα: 7.1%
[2]; Canine Monocyte
  Concentration of CCL5 in the absence of stimulation by LPS or ConA: 442
[2]; Canine T-cells
  Concentration of CCL5 in the absence of stimulation by LPS or ConA: 290
[2]; Canine/ConA Monocyte
  % CCL5 production relative to that of LPS/ConA: 81%
[2]; Canine/ConA T-cells
  % CCL5 production relative to that of LPS/ConA: 26%
[3]
  % Cytokine decrease in the presence of LPS/ConA: IFNγ: 34.9%
  % Cytokine decrease in the presence of LPS/ConA: IL-2: 80.7%
  % Cytokine decrease in the presence of LPS/ConA: IL-4: 37.7%
  % Cytokine decrease in the presence of LPS/ConA: IL-6: −16.4%
  % Cytokine decrease in the presence of LPS/ConA: IL-13: 85.3%
  % Cytokine decrease in the presence of LPS/ConA: TNFα: 38.2%
[4]
  MIC S. aureus: 2 µg/mL (≈ 1.29 µM)
  MIC Sau: 2 µg/mL (≈ 1.29 µM)
[5]
  MBIC: <1 µg/mL
  MBIC S. aureus: <1 µg/mL
[6]
  MBIC: <1 µg/mL
  MBIC E. coli: <1 µg/mL
[7]
  MBIC: <1 µg/mL
[8]
  MBIC: <1 µg/mL
[9]
  MBIC: 2 µg/mL
[10]
  MBIC: 2 µg/mL
[11]
  MBIC: 2 µg/mL
[12]
  MBIC: 4 µg/mL
[13]
  MBIC: 4 µg/mL
[14]
  MBIC: 2 µg/mL
[15]
  MBIC: 2 µg/mL
[16]
  MBIC: 8 µg/mL
[17]
  MBIC: 2 µg/mL
[18]
  MIC E. coli: <1 µg/mL
  MIC Ec: <1 µg/mL
[19]
  Concentration of Monocyte cytokine IFNγ in absence of additional stimulant: -310 pg/mL
  Concentration of Monocyte cytokine IL-2 in absence of additional stimulant: 86 pg/mL
  Concentration of Monocyte cytokine IL-4 in absence of additional stimulant: -241 pg/mL
  Concentration of Monocyte cytokine IL-6 in absence of additional stimulant: -113 pg/mL
  Concentration of Monocyte cytokine IL-13 in absence of additional stimulant: -25 pg/mL
  Concentration of Monocyte cytokine TNFα in absence of additional stimulant: -73 pg/mL
[20]
  MIC Hs: 32 µg/mL (≈ 20.6 µM)
[21]
  MIC Sp: <1 µg/mL
[22]
  MIC Su: <1 µg/mL
[23]
  MIC Se: 2 µg/mL (≈ 1.29 µM)
[24]
  MIC Sd: <1 µg/mL
[25]
  MIC Mh: 8 µg/mL (≈ 5.16 µM)
[26]
  MIC Ss: <1 µg/mL
[27]
  MIC Bb: 4 µg/mL (≈ 2.58 µM)
[28]
  MIC Sa: 2 µg/mL (≈ 1.29 µM)
[29]
  MIC Pa: 4 µg/mL (≈ 2.58 µM)
[30]
  MIC Pm: 8 µg/mL (≈ 5.16 µM)
[31]
  Concentration of T-cell cytokines in the absence of additional stimulant: IFNγ: 11 pg/mL
  Concentration of T-cell cytokines in the absence of additional stimulant: IL-2: 13 pg/mL
  Concentration of T-cell cytokines in the absence of additional stimulant: IL-4: 71 pg/mL
  Concentration of T-cell cytokines in the absence of additional stimulant: IL-6: 149 pg/mL
  Concentration of T-cell cytokines in the absence of additional stimulant: IL-13: -100 pg/mL
  Concentration of T-cell cytokines in the absence of additional stimulant: TNFα: -46 pg/mL
[32]
  % Monocyte cytokine decrease in presence of LPS/ConA, IFNγ: 13.7%
  % Monocyte cytokine decrease in presence of LPS/ConA, IL-2: 38.9%
  % Monocyte cytokine decrease in presence of LPS/ConA, IL-4: 32.6%
  % Monocyte cytokine decrease in presence of LPS/ConA, IL-6: 39.9%
  % Monocyte cytokine decrease in presence of LPS/ConA, IL-13: 36.5%
  % Monocyte cytokine decrease in presence of LPS/ConA, TNFα: 44.3%
[33]
  % Monocyte cytokine decrease in presence of LPS/ConA, IFNγ: 31.6%
  % Monocyte cytokine decrease in presence of LPS/ConA, IL-2: 34.0%
  % Monocyte cytokine decrease in presence of LPS/ConA, IL-4: 3.9%
  % Monocyte cytokine decrease in presence of LPS/ConA, IL-6: 21.0%
  % Monocyte cytokine decrease in presence of LPS/ConA, IL-13: 65.5%
  % Monocyte cytokine decrease in presence of LPS/ConA, TNFα: 68.1%
[34]
  Concentration of T-cell cytokines in the absence of additional stimulant: IFNγ: -12 pg/mL
  Concentration of T-cell cytokines in the absence of additional stimulant: IL-2: -66 pg/mL
  Concentration of T-cell cytokines in the absence of additional stimulant: IL-4: -73 pg/mL
  Concentration of T-cell cytokines in the absence of additional stimulant: IL-6: -92 pg/mL
  Concentration of T-cell cytokines in the absence of additional stimulant: IL-13: 178 pg/mL
  Concentration of T-cell cytokines in the absence of additional stimulant: TNFα: 113 pg/mL
[35]
  Concentration of Monocyte cytokine IFNγ in absence of additional stimulant: -3 pg/mL
  Concentration of Monocyte cytokine IL-2 in absence of additional stimulant: -103 pg/mL
  Concentration of Monocyte cytokine IL-4 in absence of additional stimulant: -196 pg/mL
  Concentration of Monocyte cytokine IL-6 in absence of additional stimulant: 75 pg/mL
  Concentration of Monocyte cytokine IL-13 in absence of additional stimulant: 294 pg/mL
  Concentration of Monocyte cytokine TNFα in absence of additional stimulant: -218 pg/mL
[36]; Bovine Monocyte
  Concentration of CCL5 in the absence of stimulation by LPS or ConA: 825
[36]; Bovine T-cells
  Concentration of CCL5 in the absence of stimulation by LPS or ConA: 195
[36]; Bovine/LPS Monocyte
  % CCL5 production relative to that of LPS/ConA: 105%
[36]; Bovine/LPS T-cells
  % CCL5 production relative to that of LPS/ConA: 79%

## VLKIKVKIWVVK (not fully specified; also: D-amino acid(s), positions not given here) [Peptide D-3007]
[37]
  peptide concentration that inhibited more than 90% of adhered biofilm biomass, P. aeruginosa (PAO1): 8 µM
[38]
  peptide concentration that inhibited more than 90% of adhered biofilm biomass, S. typhimurium (ATCC 14028): 4 µM
[39]
  peptide concentration that inhibited more than 90% of adhered biofilm biomass, S. aureus (C623): 8 µM
[40]
  peptide concentration that inhibited more than 90% of adhered biofilm biomass, E. coli (O157:H7): 4 µM

From patent US20210138025A1, “CATIONIC PEPTIDES WITH IMMUNOMODULATORY AND/OR ANTI-BIOFILM ACTIVITIES” (priority 2018, published 2021)
